Reference: US12612358B2, “Resorcinol-based compounds and uses thereof” (priority 2020, dated 2026)
pIC50: −log10 of the molar value.

The compounds below were run on SKOv3 (ovarian) (assay: Cell proliferation, SKOv3 ovarian cancer cells). Conditions: Homo sapiens, SK-OV-3, read-out: IC50 category.
Assay type: cell-based
Excerpt: Effects of Compound-5B on cell proliferation in additional cancer cells: To determine whether Compound-5B would have broad based anticancer activity, we study whether Compound-5B would be effective at inhibiting cell proliferation in a variety of cancers overexpressing Id-1. The assay conditions used were identical to those presented for breast and pancreatic cancers. Indeed, Compound-5B was potent at inhibiting cell proliferation in blood cancer (leukemia), glioblastoma, prostate, and ovarian cancer.
With `CCCCCCC(C)(C)c1cc(O)c(C(=O)N(C)c2ccccc2)c(O)c1` [Compound 5E, 2,6-dihydroxy-N-methyl-4-(2-methyloctan-2-yl)-N-phenylbenzamide] the pIC50 was 6.00 to 6.30.

These compounds were tested on PANC-1 tumors (assay: PANC-1 subcutaneous xenograft in athymic nu/nu mice). Conditions: PANC-1 tumor mice; Compound-5B 10 mg/kg i.p. daily, gemcitabine 50 mg/kg i.p. three times a week.
Assay type: in vivo
With `Nc1ccn([C@@H]2O[C@H](CO)[C@@H](O)C2(F)F)c(=O)n1` [gemcitabine, reference compound] the “weight loss (metric of drug toxicity)” value was “significant weight loss”.

These compounds were tested on PANC-1 (assay: CellTiter-Glo cell proliferation, PANC-1 pancreatic cancer cells). Conditions: Homo sapiens; PANC-1 (by context); read-out: IC50, inhibition of cell viability/proliferation.
Assay type: cell-based, human
Excerpt: Cell culture and treatment of pancreatic cancer cell lines: Pancreatic cancer cells lines BxPC-3, SW1990, and PANC-1 used in the experiments presented herein can be obtained from ATCC. The cells can be cultured and passaged in complete growth medium (RPMI-1640, Dulbecco's Modified Eagle Medium, or Leibovitz's L-15 medium) that has been supplemented with fetal bovine serum to a final concentration of 10%.
Effects of Compound-5B on proliferation and Id-1 expression in pancreatic cell lines. Compound-5B was next tested for inhibition of cell viability/proliferation in the three pancreatic cancer cell lines and two primary patient-derived cancer cell lines. Compound-5B inhibited cell viability/proliferation of all the cancer cell lines (Table 2). The culturing condition for the pancreatic cell lines was similar to those used in the breast cancer lines, with the exception of the primary patient-derived pancreatic cancer cell lines (PANC9 and PANC13). For determining inhibition of cell proliferation in patient-derived pancreatic cancer cells were cultured in a T75 ultra low attachment flasks with DMEM/F12 media supplemented with B27, penicillin/streptomycin (10,000 u/mL), 50 µg/mL human epidermal growth factor (hEGF), 50 μg/mL human fibroblast growth factor, and 5 μg/mL heparin. Cells were plated in a 384-well plate and incubated for three days to promote the formation of tumorspheres. Cells were then treated with Compound-5B for three days. Cell proliferation of pancreatic cells in the presence of drug was measured using the CellTiter-Glo luminescent Assay and IC50 values were calculated (Table 2). The IC50 and corresponding 95% confidence limits (CL) were calculated using non-linear regression analysis.
`C=C(C)[C@@H]1CCC(C)=C[C@H]1c1c(O)cc(CCCCC)cc1O` [CBD, cannabidiol, reference compound] was tested, and the pIC50 was 5.72.

These compounds were tested on MDA-MB231 D3H (assay: CellTiter-Glo viability/proliferation assay, MDA-MB231 breast cancer cells). Conditions: Homo sapiens, MDA-MB-231, 48 h, read-out: Inhibition of MDA-MB231 D3H.
Assay type: cell-based
`CC(C)(c1cc(O)c(C(=O)Nc2ccccn2)c(O)c1)C1CCCCC1` [Compound 17D, 4-(2-cyclohexylpropan-2-yl)-2,6-dihydroxy-N-(pyridin-2-yl)benzamide] showed a pIC50 of over 6.30.
In the case of `CC(C)(c1cc(O)c(C(=O)Nc2ccccc2)c(O)c1)C1CCCCC1` [Compound 17C, 4-(2-cyclohexylpropan-2-yl)-2,6-dihydroxy-N-phenylbenzamide], the pIC50 was over 6.30.
In the case of `CCCCCCC(C)(C)c1cc(O)c(C(=O)NC2CCCCC2)c(O)c1` [Compound 5A, N-cyclohexyl-2,6-dihydroxy-4-(2-methyloctan-2-yl)benzamide], the pIC50 was over 6.30.
Work on `CC(C)(c1ccccc1)c1cc(O)c(C(=O)NC2CCCCC2)c(O)c1` [Compound 17A, N-cyclohexyl-2,6-dihydroxy-4-(2-phenylpropan-2-yl)benzamide] yielded a pIC50 of 6.00 to 6.30.
Compound `CCCCCCC(C)(C)c1cc(O)c(C(=O)N(C)c2ccccc2)c(O)c1` [Compound 5E, 2,6-dihydroxy-N-methyl-4-(2-methyloctan-2-yl)-N-phenylbenzamide] has a pIC50 of 5.30 to 6.00.

Same assay, conditions: Homo sapiens, MDA-MB-231, 48 h; CellTiter-Glo, two-day treatment; read-out: Inhibition of MDA-MB231 D3H
With `CCCCCCC(C)(C)c1cc(O)c(C(=O)Nc2cccc(N3CCOCC3)c2)c(O)c1` [Compound 5J, 2,6-dihydroxy-4-(2-methyloctan-2-yl)-N-(3-morpholinophenyl)benzamide] the pIC50 was over 6.30.
`CC(C)(CCCCN1CCOCC1)c1cc(O)c(C(=O)Nc2ccccc2)c(O)c1` [Compound 26A, 2,6-dihydroxy-4-(2-methyl-6-morpholinohexan-2-yl)-N-phenylbenzamide] was tested, and the pIC50 was 5.30 to 6.00.
For `CCCCCCC(C)(C)c1cc(O)c(C(=O)Nc2ccncn2)c(O)c1` [Compound 5D, 2,6-dihydroxy-4-(2-methyloctan-2-yl)-N-(pyrimidin-4-yl)benzamide], the pIC50 was over 6.30.
For `CCCCCCC(C)(C)c1cc(O)c(C(=O)Nc2ccc(N3CCOCC3)cc2)c(O)c1` [Compound 5I, 2,6-dihydroxy-4-(2-methyloctan-2-yl)-N-(4-morpholinophenyl)benzamide], the pIC50 was over 6.30.
`CCCCCCC(C)(C)c1cc(O)c(C(=O)Nc2cccc(N3CCN(C)CC3)c2)c(O)c1` [Compound 5G, 2,6-dihydroxy-4-(2-methyloctan-2-yl)-N-(3-(4-methylpiperazin-1-yl)phenyl)benzamide] gave a pIC50 of 5.30 to 6.00.
In the case of `CCCCCc1cc(O)c(C(=O)Nc2ccccc2)c(O)c1` [Compound 11, 2,6-dihydroxy-4-pentyl-N-phenylbenzamide], the pIC50 was over 6.30.
For `CCCCCCC(C)(C)c1cc(O)c(C(=O)Nc2ccccn2)c(O)c1` [Compound 5C, 2,6-dihydroxy-4-(2-methyloctan-2-yl)-N-(cyridin-2-yl) benzamide], the pIC50 was over 6.30.
For `CC(C)(c1ccccc1)c1cc(O)c(C(=O)Nc2ccccc2)c(O)c1` [Compound 17B, 2,6-dihydroxy-N-phenyl-4-(2-phenylpropan-2-yl)benzamide], the pIC50 was over 6.30.
Compound `CCCCCCC(C)(C)c1cc(O)c(C(=O)Nc2ccccc2N2CCN(C)CC2)c(O)c1` [Compound 5H, 2,6-dihydroxy-4-(2-methyloctan-2-yl)-N-(2-(4-methylpiperazin-1-yl)phenyl)benzamide] has a pIC50 of 6.00 to 6.30.
Work on `CCCCCCC(C)(C)c1cc(O)c(C(=O)Nc2ccc(N3CCN(C)CC3)cc2)c(O)c1` [Compound 5F, 2,6-dihydroxy-4-(2-methyloctan-2-yl)-N-(4-(4-methylpiperazin-1-yl)phenyl)benzamide] yielded a pIC50 of under 4.82.
For `CCCCCCC(C)(C)c1cc(O)c(C(=O)Nc2ccccc2N2CCOCC2)c(O)c1` [Compound 5K, 2,6-dihydroxy-4-(2-methyloctan-2-yl)-N-(2-morpholinophenyl)benzamide], the pIC50 was over 6.30.
